Results taken from publication PMC9888311, “Neonatal NET-Inhibitory Factor improves survival in the cecal ligation and puncture model of polymicrobial sepsis by inhibiting neutrophil extracellular traps” (Frontiers in Immunology, 2023).
Where no end group is shown, it is not given here.

Experiments:
Type in all cases: in vivo, mouse (outbred Swiss Webster)
[1] = system: CLP model of polymicrobial sepsis; assay: Survival over 6 days after cecal ligation and puncture (CLP)
Method: Mice were anesthetized with 3% isoflurane in an induction chamber, and anesthesia was maintained by use of inhalation via nose cone. Sepsis was induced by cecal ligation and puncture (CLP) as previously described ([30], [31]). […] The animals received subcutaneous sterile isotonic saline (0.5 mL) for fluid resuscitation immediately after surgery. Sham-operated mice were subjected to identical procedures, except that ligation and puncture of the cecum was omitted. Survival of mice subjected to CLP or sham injury was determined daily for 6 days. Twenty-four and 48 hours after CLP, all animals were scored for clinical illness severity as previously described ([32]) by an examiner blinded to treatment arm. In this assessment, higher scores reflect increased illness severity with non-surviving mice receiving a score of 10. These mice were included in the statistical analysis. In additional experiments, mature Swiss-webster mice were treated with sham surgery or CLP procedure. […]
For our survival studies, animals were randomly assigned to one of five groups: (a) sham-operated group (Sham); (b) DMSO vehicle treatment group (CLP + DMSO (0.003%/5% Dextrose/H2O, IV); (c) nNIF treatment group ([…], 0.003%/5% Dextrose/H2O, IV); (d) scrambled peptide control treatment group (CLP + nNIF-SCR, 1 mg/kg, 0.003%/5% Dextrose/H2O, IV); and (e) antibiotic treatment group ([…]). Groups a-d received their respective treatment at 4 and 10 hours after CLP. Group e received two doses of meropenem at 4 and 10 hours after CLP and then daily injections for 6 days. In another set of survival studies, mice were treated with nNIF or nNIF-SCR (1 mg/kg, IV) 4 and 10 hours after CLP in combination therapy with a suboptimal dose of meropenem (8 mg/kg, IP) also given 4 and 10 hours after CLP and then once daily. […] Both aliquots of blood and peritoneal fluid were used for the following analyses: leukocyte cell count and differential, bacterial CFU studies, NET quantitation using MPO-DNA complex ELISA, live cell imaging, and multiplex cytokine profiling with specific ELISA confirmation.

[2] = system: neutrophil extracellular traps (NETs), peritoneal fluid; assay: Peritoneal fluid NET formation (confocal live cell imaging, MPO-DNA complex ELISA); conditions: 24 hours after CLP; nNIF 1 mg/kg IV or meropenem 25 mg/kg IP at 4 and 10 hours after CLP; compared to vehicle, scrambled peptide and meropenem groups; N=5-9
Method: We evaluated mouse NET formation via live cell imaging with confocal microscopy as previously described ([12]). Sham mice and CLP animals from all experimental groups were euthanized by CO2 inhalation and the peritoneal fluid was collected. An aliquot of 100 μL of the peritoneal fluid was placed on glass coverslips coated with poly-L-lysine for 1 hour at 37°C in 5% CO2/95% air. NET formation was assessed using cell-permeable (SYTO Green, Molecular Probes) and cell-impermeable (SYTOX Orange, Molecular Probes) DNA fluorescent stains. Using a FV3000 1X81 confocal microscope and FluoView software (Olympus) with 20X and 60X objectives, we obtained z-series images over a range of 20 μm with a 1 μm step size for each field. We processed these images using FluoView (Olympus), Photoshop (Adobe), and ImageJ (NIH) software. An in-house ELISA was used to quantify MPO-DNA complexes in plasma and peritoneal fluid from sham and CLP mice 24 hours after the surgical procedure ([24], [27]). Briefly, after overnight coating with anti-MPO capture antibody in calcium carbonate coating buffer (2 µg/ml; 0400-0002, Bio-Rad) at 4°C, a 96-well plate was blocked with 2.5% bovine serum albumin in PBS for 2 hours at room temperature. The plate was subsequently washed, before incubating for 90 minutes at room temperature with 10% peritoneal fluid in blocking buffer. […]

[3] = system: neutrophil CD11b; assay: Peritoneal fluid neutrophil CD11b expression (flow cytometry); conditions: 24 hours after CLP; nNIF 1 mg/kg or meropenem 25 mg/kg at 4 and 10 hours; compared to scrambled peptide control-treated CLP mice
Method: Twenty-four hours after CLP or sham surgery, total white blood cell and differential neutrophil counts were determined both in whole blood samples collected from orbital vein using heparinized capillaries tubes and peritoneal fluid by washing with 3 mL of PBS, respectively. Then, samples were incubated with CD45 APC-Cy7 (Biolegend), CD11b PE-Cy7 (EBioscience), Ly6G BV510 (Biolegend), and CD16/CD32 (Fc-block, EBioscience) for 30 minutes at 37 °C. Thirty minutes later, cells were washed, fixed, and ran on a Beckman Coulter Cytoflex located in the University of Utah Flow Cytometry Core.

[4] = system: peritoneal fluid and stool microbiomes; assay: 16S rRNA gene sequencing of peritoneal fluid and stool microbiomes; conditions: CLP-treated mice; for relative abundance of Enterobacteriaceae in stool and peritoneal fluid: ANCOM-BC, relative to vehicle; for Bray-Curtis distance of peritoneal fluid microbiome from stool microbiome: each group compared to vehicle
Method: Libraries were constructed for sequencing approximately 460 bp of the variable V3 and V4 regions of 16S rRNA using a two-step PCR process. Genomic DNA (5 to 20 ng) was PCR amplified for 14 cycles using the Quick-16S Primer Set V3-V4 (Zymo Research cat# D6405-2-400) with NEBNext Ultra II Q5 Master Mix (NEB cat# M0544). Dual unique indexing adapters (Illumina cat#20027213) were added to the amplicons during a second PCR reaction (6 cycles). 16S libraries were qualified on an Agilent Technologies 4150 TapeStation using a D1000 ScreenTape assay (cat# 5067-5582 and 5067-5583, respectively) and the molarity of adapter-modified molecules was defined by quantitative PCR using the Kapa Biosystems Kapa Library Quant Kit (cat#KK4824). Libraries were normalized and pooled (12 pM) and chemically denatured along with 15% molar representation of PhiX library in preparation for sequencing on an Illumina MiSeq instrument in paired-end 300 cycle mode. Raw 16S sequences were read in and processed with […] 2021.11 plugins ([33]). In brief, demultiplexed and quality-filtered sequences were first trimmed of primer and linker sequences with the Cutadapt plugin, then denoised to ASVs using DADA2 ([34], [35]). […] Diversity metrics, distances, and statistical significance of beta diversity groupings by permanova were further calculated within […]2 artefacts were then read into R and genera tested for differential abundances using ANCOM-BC implemented in the microbiomeMarker package ([37], [38]). Scripts used for processing and analyses have been deposited along with processed QIIME2 artifact files at: https://github.com/wzacs1/Araujo_nNIF. Raw sequences have been deposited in the NCBI SRA under BioProject accession PRJNA884333.

C[C@@H](O)[C@H]1C(=O)N2C(C(=O)O)=C(S[C@@H]3CN[C@H](C(=O)N(C)C)C3)[C@H](C)[C@H]12 [meropenem, reference compound]
6-day survival ([1]; sub-optimal meropenem 8 mg/kg IP at 4 and 10 hours after CLP then once daily): 40%
peritoneal fluid NET formation (MPO-DNA complexes, confocal microscopy) [2]: equivalent between the vehicle and meropenem arms
neutrophil CD11b expression in peritoneal fluid [3]: no decrease
relative abundance of Enterobacteriaceae in stool and peritoneal fluid [4]: decreased in stool and peritoneal fluid
Bray-Curtis distance of peritoneal fluid microbiome from stool microbiome [4]: more similar stool and peritoneal microbiomes

KFNKPFVFLMIEQNTKSPLFMGKVVNPTQ-OH [nNIF, neonatal NET-Inhibitory Factor]
6-day survival ([1]; nNIF 0.1 mg/kg IV, 2 doses at 4 and 10 hours after CLP, N=10, vehicle (DMSO) control 0%): 30%
6-day survival ([1]; nNIF 0.5 mg/kg IV, 2 doses at 4 and 10 hours after CLP, N=10, vehicle (DMSO) control 0%): 70%
peritoneal fluid NET formation (MPO-DNA complexes, confocal microscopy) [2]: reduced NET formation qualitatively and quantitatively
neutrophil CD11b expression in peritoneal fluid [3]: significantly decreased neutrophil CD11b expression
peritoneal fluid and stool microbiomes (beta diversity, Bray-Curtis, PERMANOVA) ([4]; 16S rRNA V3/V4 sequencing, N=5-7 per group): did not alter the peritoneal fluid and stool microbiomes
relative abundance of Enterobacteriaceae in stool and peritoneal fluid [4]: did not affect their abundances
Bray-Curtis distance of peritoneal fluid microbiome from stool microbiome [4]: as dissimilar from their stool counterparts as were vehicle controls
